In patent US12660821B2, “Herbicide compositions with epyrifenacil and 2,4-D triethanolamine salt with improved properties” (MONSANTO TECHNOLOGY LLC, priority 2020, dated 2026):

Assay: Partition coefficient of compound (A) between organic solvent and water (procedure G1, HPLC)
Assay type: physicochemical
Settings: approx. 25° C.
Description: G1: General Experimental Procedure to Determine the Partition Coefficient of Compound (A) in Solvents
The experimental procedure for the respective solvent is as follows: (1) A solution of 10 g of compound (A) is prepared in 90 g of the respective solvent; (2) An aliquot of 10 g of the solution obtained in step (1) is added to 90 g of water in a glass bottle, which is shaken on a mechanical shaker for 4 hours at ambient temperature (approximately 25° C.); (3) The contents of the glass bottle are permitted to phase separate for 4 days at ambient temperature (approximately 25° C.); and (4) Subsamples of the resulting oil and water phases are taken and analyzed by HPLC to determine the concentrations of compound (A) in oil (Co) and water phases (Cw) respectively. The subsamples are typically centrifuged before HPLC analysis to remove traces of organic solvent from the water phase.
The partition coefficient, analogous to the octanol-water partition coefficient, P, is calculated as Co/Cw. The partition coefficient is conveniently expressed as a logarithm […]=log Co/Cw=P.
The ratio of determined concentrations of compound (A) in the solvent phase and the water phase typically is very large. […]

CCOC(=O)COc1ncccc1Oc1cc(-n2c(=O)cc(C(F)(F)F)n(C)c2=O)c(F)cc1Cl [compound (A), ethyl [3-[2-chloro-4-fluoro-5-(1-methyl-6-trifluoromethyl-2,4-dioxo-1,2,3,4-tetrahydropyrimidin-3-yl)phenoxy]-2-pyridyloxy]acetate]
compound (A) in the water phase (Aromatic 200 ND as organic solvent): undetectable | compound (A) in the water phase (acetophenone as organic solvent): undetectable
